# Measured values from PubChem BioAssay AID1508610 (The Scripps Research Institute Molecular Screening Center, 2020).
# The source made the active and inactive calls. No rule for the calls is given here.
# Biological target: G-protein coupled receptor 151 (Homo sapiens) (UniProt Q8TDV0)
# Assay: GPR151 activator potency, dose response, cell-based (AID 1508610)
# Settings: cell-based GPR151 activation reporter
# Chain of G-protein coupled receptor 151 (Homo sapiens) (Q8TDV0 whole entry, looked up): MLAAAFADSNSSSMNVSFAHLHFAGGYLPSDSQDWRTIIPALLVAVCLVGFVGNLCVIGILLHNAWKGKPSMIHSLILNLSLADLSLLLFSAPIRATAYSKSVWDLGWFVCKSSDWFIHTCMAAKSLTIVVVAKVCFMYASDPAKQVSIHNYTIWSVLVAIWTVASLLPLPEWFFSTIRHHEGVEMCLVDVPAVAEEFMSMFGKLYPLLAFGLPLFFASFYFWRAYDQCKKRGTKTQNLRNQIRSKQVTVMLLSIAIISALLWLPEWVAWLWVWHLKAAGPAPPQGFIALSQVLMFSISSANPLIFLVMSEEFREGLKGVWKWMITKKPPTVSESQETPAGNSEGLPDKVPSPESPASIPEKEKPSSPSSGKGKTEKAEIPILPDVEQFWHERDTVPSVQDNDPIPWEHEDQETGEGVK
row,SMILES,EC50
1,COc1ccc(-c2noc(-c3cc4ccc(OC)cc4oc3=O)n2)cc1,> 28 µM (inactive)
2,Nc1cccc(-c2nc3ccc(N)cc3s2)c1,> 36 µM (inactive)
3,CC(C)NC(=O)CSc1nnc(-c2cccnc2)n1CCc1ccccc1,> 28 µM (inactive)
4,N#C/C(=C\c1cc(Cl)ccc1O)c1nc2ccccc2[nH]1,> 28 µM (inactive)
5,COc1ccc(-c2nc(C(=O)N3CCN(C)CC3)sc2-c2ccc(OC)cc2)cc1,> 11.2 µM (inactive)
6,Cc1ccc(N(CC(=O)NCCC2=CCCCC2)S(C)(=O)=O)cc1Cl,> 28 µM (inactive)
7,CCCOc1ccc(NC(=O)C2CC(=O)N(CC)C(=Nc3ccc(C)c(C)c3)S2)cc1 (stereo not drawn),> 26.4 µM (inactive)
8,Cc1nn(-c2ccccc2)c(Cl)c1/C=N\O,> 28 µM (inactive)
9,COc1ccc(NS(=O)(=O)c2cccc3c(S(=O)(=O)Nc4ccc(OC)cc4OC)cccc23)c(OC)c1,> 20.8 µM (inactive)
10,Cn1c(=O)[nH]c(=O)c2c1nc(N1CCN(c3cccc(Cl)c3)CC1)n2Cc1ccccc1,> 22.4 µM (inactive)
11,c1ccc2[nH]c(-c3nc4ccccc4o3)nc2c1,> 28.6 µM (inactive)
12,Cc1ccc(NC(=O)CN(C)S(=O)(=O)c2ccc(Br)cc2)cc1Cl,> 28 µM (inactive)
13,O=C(O)c1ccc2nc(-c3ccccc3)[nH]c2c1,> 26.3 µM (inactive)
14,CC(=O)Oc1ccccc1N1C(=O)c2cccc([N+](=O)[O-])c2C1=O,> 35.6 µM (inactive)
15,COc1ccccc1OCCCN1C(=O)C(=O)c2cc(Br)cc(C)c21,> 28 µM (inactive)
16,O=C(Nc1cc(C(F)(F)F)ccc1F)C1CCCC1,> 28 µM (inactive)

row,SMILES,EC50
1,COc1ccc(-c2ccc(C(N)=O)s2)cc1,> 28.1 µM (inactive)
2,O=C1CCCN1CCn1cnc2c(NCCOc3ccccc3)nc(N3CCc4ccccc4C3)nc21,> 27.9 µM (inactive)
3,O=C(Nc1ncc([N+](=O)[O-])s1)c1cccs1,> 28 µM (inactive)
4,CCn1c(/C=C/C=C2\N(C)c3ccccc3C2(C)C)[n+](Cc2ccccc2)c2ccccc21,2.75 µM
5,Cn1c(N)c(S(=O)(=O)N2CCN(c3ccccc3Cl)CC2)c(=O)n(C)c1=O,> 28.4 µM (inactive)
6,Cc1ccc2nc(NC(=O)C3=COCCO3)sc2c1,> 28.4 µM (inactive)
7,CCCCCCCCCCCCCC/C(C(=O)O)=C(\C)C(=O)O,> 28 µM (inactive)
8,Cc1ccc2nc(-c3ccc(O)cc3)[nH]c2c1,> 28 µM (inactive)
9,CCOC(=O)c1sc(NC(=O)c2sccc2C)cc1C,> 29 µM (inactive)
10,CCN1CCN(Cc2ccc(NC(=O)Nc3ccccc3C)cc2)CC1,> 28 µM (inactive)
11,Cc1ccc(-c2c(Nc3ccc(Cl)cc3)c(=O)c2=O)cc1,> 28 µM (inactive)
12,CCOc1ccc(NC(=O)C(=O)NCCN2CCN(S(=O)(=O)c3ccc4ccccc4c3)CC2)cc1,> 18.8 µM (inactive)
13,O=S(=O)(NN=C1CCCCCC1)c1ccccc1,> 28 µM (inactive)
14,O=C(Nc1noc2ccccc12)c1c(F)cccc1F,> 28 µM (inactive)
15,Fc1cccc(-c2cc3nc4c(c(N5CCOCC5)n3n2)CCC4)c1,> 28 µM (inactive)

# Continued, values first:
row,EC50,SMILES
1,> 26.4 µM (inactive),c1cncc(-c2noc(C34CC5CC(CC(C5)C3)C4)n2)c1
2,> 28.8 µM (inactive),O=c1oc2cc(O)ccc2cc1-c1ccc(Cl)cc1
3,> 28 µM (inactive),CCc1cc2c(cc3c(=O)n(CC(=O)NCc4ccccc4Br)ncn32)s1
4,> 28 µM (inactive),Cc1nn(Cc2ccc(F)cc2)c(C)c1N
5,> 28 µM (inactive),O=C(CN1C(=O)C(c2ccccc2)=NC12CCCC2)Nc1ccccc1
6,> 28 µM (inactive),CC(C(=O)O)c1ccc(C(=O)c2ccccc2)s1 (stereo not drawn)
7,> 28 µM (inactive),O=C1N(CN2CCC3(CC2)OCCO3)c2ccccc2C12OCCCO2
8,> 31.2 µM (inactive),COc1ccc(-n2nc3c(c2NC(=O)c2c(F)cccc2F)CS(=O)(=O)C3)cc1
9,> 30.9 µM (inactive),Cc1ccn2cc(-c3ccc(F)cc3)nc2c1
10,> 20.9 µM (inactive),O=C(Nc1c2c(nn1-c1cccc(Cl)c1)CSC2)c1ccccc1Br
11,> 28 µM (inactive),COc1ccc(-c2ccc(C(=O)NC3CC3)s2)cc1
12,> 28.7 µM (inactive),O=C(COC(=O)CCS(=O)(=O)c1ccccc1Cl)NC(=O)NCc1ccco1
13,> 23.5 µM (inactive),Cc1cc(Br)ccc1Nc1nc(-c2ccccc2F)nc2ccccc12
14,> 27.4 µM (inactive),O=C(Nc1nc2c(s1)CCCC2)C1=COCCO1
15,0.867 µM,CCC(C)NC(=O)c1cc(=O)[nH]c2ccc(Br)cc12 (stereo not drawn)
16,> 28 µM (inactive),COc1ccc2o/c(=N\NC(=O)c3ccccc3Nc3ccccc3)c(C(N)=O)cc2c1
17,> 35 µM (inactive),Cc1ccc(-c2nc(-c3ccccn3)no2)cc1Cl
18,> 31.5 µM (inactive),COc1cc(OC)cc(C(=O)Nc2ccc3c(c2)OCO3)c1
19,> 28 µM (inactive),Cc1ccc(/C=N/NC(=O)Cc2cccn2C)s1
20,> 28.2 µM (inactive),COc1cc(Nc2ccnc(Nc3ccc(N4CCOCC4)cc3)n2)cc(OC)c1OC
21,> 31.4 µM (inactive),O=C(Nc1ncc([N+](=O)[O-])s1)c1cccnc1

row,EC50,SMILES
1,> 28 µM (inactive),CCOCCCNC(=O)c1cc([N+](=O)[O-])ccc1Cl
2,> 28.7 µM (inactive),C=CCn1c(C)cc(C2=NNC(=NCC)SC2)c1C
3,> 28 µM (inactive),Cc1ccc(NC(=O)CCNc2c(N3CCCC3)c(=O)c2=O)cc1Cl
4,> 28 µM (inactive),Cc1nn(C)cc1CN1CCOc2ccc(CN3CCc4ccccc4C3)cc2C1
5,> 28 µM (inactive),CC(NC(=O)c1ccco1)c1nnc2n1CCN(Cc1cccc(F)c1)CC2 (stereo not drawn)
6,> 27.6 µM (inactive),COc1ccc(-c2csc(/C(C#N)=C/Nc3ccc(F)c([N+](=O)[O-])c3)n2)cc1OC
7,> 28 µM (inactive),C/C(=C\c1ccccc1)C(=O)NCCc1ccccc1
8,> 35.9 µM (inactive),COc1ccc(-c2nc(-c3ccccn3)no2)cc1
9,> 28 µM (inactive),O=C(CCn1nc(-c2ccccc2)c2ccccc2c1=O)NCc1ccccc1
10,> 28 µM (inactive),Cc1ccc(Oc2nc3ccccn3c(=O)c2/C=C(\C#N)C(N)=O)c(C)c1
11,> 28 µM (inactive),O=C(O)c1cccc(NC(=O)c2ccc(Br)o2)c1
12,> 28 µM (inactive),CCNc1nc(OC(C(F)(F)F)C(F)(F)F)nc(N2CCCCC2)n1
13,> 31.1 µM (inactive),CCCCCCOc1ccc(C(=O)O)cc1OC
14,> 28 µM (inactive),COc1cc(Br)ccc1OCC(=O)N/N=C/c1ccc([N+](=O)[O-])cc1
15,> 24.3 µM (inactive),CCc1ccccc1NC(=S)N(CCc1ccc(OC)c(OC)c1)Cc1cccnc1
16,> 28 µM (inactive),CC(C)N1CCC(=NNC(=O)c2ccc(C(C)(C)C)cc2)CC1
17,> 28 µM (inactive),Cc1ccc2nc(NC(=O)C34CC5CC(C3)CC(n3cnc([N+](=O)[O-])n3)(C5)C4)sc2c1
18,> 30.1 µM (inactive),O=C(CCCOc1ccccc1)NNC(=O)c1ccccc1
19,> 28 µM (inactive),COc1cccc(-c2nnc3n2N=C(c2cccc([N+](=O)[O-])c2)CS3)c1
20,> 28 µM (inactive),COc1ccccc1N(CC(=O)Nc1ccccc1C(=O)NCC(C)C)S(C)(=O)=O
21,> 27 µM (inactive),N#CC1=C(N)Oc2n[nH]c(C34CC5CC(CC(C5)C3)C4)c2C1c1cccnc1 (stereo not drawn)
